Data as given in patent US20230119894A1, “THERAPEUTIC OR PROPHYLACTIC METHOD FOR DIABETES USING COMBINATION MEDICINE” (Japan Tobacco Inc., priority 2019, published 2023).
Several values for one entry are separate records, joined by “and”; a condition that tells them apart may be missing. Equal values may be shown once. Marks after values point to notes of the source that are not given here.

Experiments:
[1] = system: Salmonella typhimurium TA1537; test: Ames test (reverse mutation test), TA1537; settings: for Number of revertant colonies: TA1537; for Number of revertant colonies TA1537: S9 Mix +, mean number of each plate
Procedure: (§1) Metabolites 1, 3, and 5 and Metabolites C to H were each tested herein. The purpose of this test is to evaluate the potential of each metabolite to induce reverse mutations in the standard strains of Salmonella typhimurium (TA98, TA1537, TA100, and TA1535) and Escherichia coli (WP2uvrA), in either the presence or absence of a rat liver metabolic activation system (S9 mix).
(§2) The solvent used herein was dimethyl sulfoxide (DMSO, 100 μL/plate).
(§3) The test was performed by the pre-incubation method with or without S9 mix. When the test was performed without S9 mix, sodium phosphate buffer solution (pH 7.4) was added.
(§4) 0.5 mL of S9 mix or 0.5 mL of 0.1 mol/L sodium phosphate buffer solution (pH 7.4), and 0.1 mL of the bacterial culture solution were added to a test tube containing 0.1 mL of the negative control formulation (DMSO alone), the metabolite, or the positive control formulation. The mixtures were pre-incubated at 37° C. for 20 minutes while shaking. After the pre-incubation period, 2 mL of top agar were added and the mixtures were vortex-mixed and seeded onto plates. Two plates per treatment were used. Each plate was incubated at 37±1° C. for 48 hours or more and the revertant colonies were counted. The mean number of revertant colonies for each treatment plate was then calculated. […] Evaluation was based on mean values with no statistical comparisons being used.

[2] = system: Salmonella typhimurium TA98; test: Ames test (reverse mutation test), TA98; settings: for Number of revertant colonies: TA98; for Number of revertant colonies TA98: S9 Mix +, mean number of each plate
Procedure: as §1, §2, §3, §4

[3] = system: Salmonella typhimurium TA1535; test: Ames test (reverse mutation test), TA1535
Procedure: as §1, §2, §3, §4

Escherichia coli WP2uvrA = test: Ames test (reverse mutation test), WP2uvrA; format: cell-based; settings: for Number of revertant colonies: WP2uvrA; for Number of revertant colonies WP2uvrA: S9 Mix +, mean number of each plate
[4] = system: Salmonella typhimurium TA100; test: Ames test (reverse mutation test), TA100; settings: for Number of revertant colonies: TA100; for Number of revertant colonies TA100: S9 Mix +, mean number of each plate
Procedure: as §1, §2, §3, §4

Compound: Nc1ccc2cc3ccccc3cc2c1 [Example 2AA, 2-Aminoanthracene, reference compound]
- Number of revertant colonies ([1]; S9 mix +, 2 μg/plate (positive control)): 135
- Number of revertant colonies ([2]; S9 mix +, 0.5 μg/plate (positive control)): 289
- Number of revertant colonies ([3]; S9 mix +, 2.0 μg/plate (positive control)): 223 and 146 and 250

Compound: Cl.Nc1c2ccccc2nc2ccccc12.O [Example 9AA, 9-Aminoacridine hydrochloride monohydrate, reference compound]
- Number of revertant colonies ([1]; S9 mix −, 80 μg/plate (positive control)): 372

Compound: CC(C)(C)Oc1cc(F)cc(-c2cc(N)nn2C(F)(F)F)c1 [Metabolite 1]
- Number of revertant colonies (Escherichia coli WP2uvrA; S9 mix +, 185 μg/plate): 16*
- Number of revertant colonies (Escherichia coli WP2uvrA; S9 mix +, 556 μg/plate): 18*
- Number of revertant colonies (Escherichia coli WP2uvrA; S9 mix +, 1667 μg/plate): 9*
- Number of revertant colonies (Escherichia coli WP2uvrA; S9 mix +, 5000 μg/plate): 0*
- Number of revertant colonies (Escherichia coli WP2uvrA; S9 mix −, 185 μg/plate): 15*
- Number of revertant colonies (Escherichia coli WP2uvrA; S9 mix −, 556 μg/plate): 8*
- Number of revertant colonies (Escherichia coli WP2uvrA; S9 mix −, 1667 μg/plate): 5*
- Number of revertant colonies (Escherichia coli WP2uvrA; S9 mix −, 5000 μg/plate): 0*
- Number of revertant colonies ([1]; S9 mix +, 185 μg/plate): 2*
- Number of revertant colonies ([1]; S9 mix +, 556 μg/plate): 0*
- Number of revertant colonies ([1]; S9 mix +, 1667 μg/plate): 0*
- Number of revertant colonies ([1]; S9 mix +, 5000 μg/plate): 0*
- Number of revertant colonies ([1]; S9 mix −, 185 μg/plate): 0*
- Number of revertant colonies ([1]; S9 mix −, 556 μg/plate): 0*
- Number of revertant colonies ([1]; S9 mix −, 1667 μg/plate): 0*
- Number of revertant colonies ([1]; S9 mix −, 5000 μg/plate): 0*
- Number of revertant colonies ([2]; S9 mix +, 185 μg/plate): 16*
- Number of revertant colonies ([2]; S9 mix +, 556 μg/plate): 15*
- Number of revertant colonies ([2]; S9 mix +, 1667 μg/plate): 13*
- Number of revertant colonies ([2]; S9 mix +, 5000 μg/plate): 13*
- Number of revertant colonies ([2]; S9 mix −, 185 μg/plate): 9*
- Number of revertant colonies ([2]; S9 mix −, 556 μg/plate): 0*
- Number of revertant colonies ([2]; S9 mix −, 1667 μg/plate): 0*
- Number of revertant colonies ([2]; S9 mix −, 5000 μg/plate): 0*
- Number of revertant colonies ([3]; S9 mix +, 185 μg/plate): 5*
- Number of revertant colonies ([3]; S9 mix +, 556 μg/plate): 4*
- Number of revertant colonies ([3]; S9 mix +, 1667 μg/plate): 4*
- Number of revertant colonies ([3]; S9 mix +, 5000 μg/plate): 2*
- Number of revertant colonies ([3]; S9 mix −, 185 μg/plate): 0*
- Number of revertant colonies ([3]; S9 mix −, 556 μg/plate): 0*
- Number of revertant colonies ([3]; S9 mix −, 1667 μg/plate): 0*
- Number of revertant colonies ([3]; S9 mix −, 5000 μg/plate): 0*
- Number of revertant colonies ([4]; S9 mix +, 185 μg/plate): 78*
- Number of revertant colonies ([4]; S9 mix +, 556 μg/plate): 59*
- Number of revertant colonies ([4]; S9 mix +, 1667 μg/plate): 50*
- Number of revertant colonies ([4]; S9 mix +, 5000 μg/plate): 52*
- Number of revertant colonies ([4]; S9 mix −, 185 μg/plate): 38*
- Number of revertant colonies ([4]; S9 mix −, 556 μg/plate): 0*
- Number of revertant colonies ([4]; S9 mix −, 1667 μg/plate): 0*
- Number of revertant colonies ([4]; S9 mix −, 5000 μg/plate): 0*

Compound: Nc1cc(-c2cc(F)cc(OC(F)(F)F)c2)n(-c2cncc(C(F)(F)F)c2)n1 [Metabolite 5]
- Number of revertant colonies ([3]; S9 mix +, 185 μg/plate): 9
- Number of revertant colonies ([3]; S9 mix −, 6.9 μg/plate): 9
- Number of revertant colonies ([3]; S9 mix −, 556 μg/plate): 6

Compound: CC(C)(OCc1cc(F)cc(-c2cc(N)nn2-c2ccc(F)cc2)c1)C(F)(F)F [Metabolite D, reference compound]
- Number of revertant colonies WP2uvrA (Escherichia coli WP2uvrA; dose 2.3 μg/plate): 31
- Number of revertant colonies WP2uvrA (Escherichia coli WP2uvrA; dose 21 μg/plate): 24
- Number of revertant colonies WP2uvrA (Escherichia coli WP2uvrA; dose 185 μg/plate): 23
- Number of revertant colonies WP2uvrA (Escherichia coli WP2uvrA; dose 556 μg/plate): 32
- Number of revertant colonies WP2uvrA (Escherichia coli WP2uvrA; dose 1667 μg/plate): 28
- Number of revertant colonies WP2uvrA (Escherichia coli WP2uvrA; dose 5000 μg/plate): 28
- Number of revertant colonies TA1537 ([1]; dose 2.3 μg/plate): 14
- Number of revertant colonies TA1537 ([1]; dose 6.9 μg/plate): 20
- Number of revertant colonies TA1537 ([1]; dose 62 μg/plate): 18
- Number of revertant colonies TA1537 ([1]; dose 185 μg/plate): 15
- Number of revertant colonies TA1537 ([1]; dose 556 μg/plate): 15
- Number of revertant colonies TA1537 ([1]; dose 1667 μg/plate): 19
- Number of revertant colonies TA1537 ([1]; dose 5000 μg/plate): 24
- Number of revertant colonies TA98 ([2]; dose 2.3 μg/plate): 39
- Number of revertant colonies TA98 ([2]; dose 6.9 μg/plate): 42
- Number of revertant colonies TA98 ([2]; dose 21 μg/plate): 52
- Number of revertant colonies TA98 ([2]; dose 62 μg/plate): 47
- Number of revertant colonies TA98 ([2]; dose 185 μg/plate): 49
- Number of revertant colonies TA98 ([2]; dose 556 μg/plate): 51
- Number of revertant colonies TA98 ([2]; dose 1667 μg/plate): 57
- Number of revertant colonies TA98 ([2]; dose 5000 μg/plate): 88
- Number of revertant colonies TA100 ([4]; dose 2.3 μg/plate): 139
- Number of revertant colonies TA100 ([4]; dose 6.9 μg/plate): 203
- Number of revertant colonies TA100 ([4]; dose 21 μg/plate): 237
- Number of revertant colonies TA100 ([4]; dose 62 μg/plate): 185
- Number of revertant colonies TA100 ([4]; dose 185 μg/plate): 151
- Number of revertant colonies TA100 ([4]; dose 556 μg/plate): 119
- Number of revertant colonies TA100 ([4]; dose 1667 μg/plate): 100
